# In PubChem BioAssay AID179 (DTP/NCI, 2004):
# Calls of active or inactive are those of the source.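 The calls were made as follows: active = compounds giving half or more protection of infected cells from virus-caused growth loss, again on retest; inactive = the rest.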 Where a SMILES comes first, the peptide text is derived from it. [ ]: non-standard residue; d: D form. The star is where a group is joined. ξ: configuration not given here. ξF = NC(Cc1ccccc1)C(=O)O; Cbz = O=C(OCc1ccccc1)*
# Test system: CEM cells HIV-1 protection, formazan growth assay
# Assay: NCI AIDS Antiviral Assay
# Settings: for IC50: measured here: growth of uninfected CEM cells
# Summary of the method: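 Protection of CEM cells against HIV-1 was scored from cell growth (soluble formazan) across five concentrations, with parallel uninfected cells. Lack of protection may reflect toxicity.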
SMILES,EC50,IC50,outcome
CCN(CC)C(=O)COc1cc2c(O)c3c(O)c(C)c4c(c13)C(=O)C(C)(O/C=C/C(OC)C(C)C(OC(C)=O)C(C)C(O)C(C)C(O)C(C)/C=C/C=C(\C)C(=O)N2)O4 (stereo unspecified),> 200 µM,74.1 µM,–
CCOC(OCC)c1ccc(-n2c(N)c(C#N)cnc2=S)c2c1OC2=NC=C(C#N)C#N,> 151 µM,> 151 µM,–
CCNC(=O)C(O)C1(O)CCC2[C@@H]3CCC4=CC(=O)C=C[C@]4(C)C3[C@@H](O)C[C@@]21C (stereo partly specified),–,–,inactive
CSCCC(NCc1c(O)ccc2ccc(=O)oc12)C(=O)O (stereo unspecified),> 200 µM,> 200 µM,–
Cc1ccc(NC(=O)C2C(=O)N(c3ccc(C)cc3)C(=O)/C2=N\NC(N)=S)cc1 (stereo unspecified),> 12.6 µM,> 12.6 µM,–
CCOC(=O)C(Cl)(NC(=O)OCc1ccccc1)C(F)(F)F (stereo unspecified),–,–,inactive
S=c1ncc(-c2cncc(-c3cnc(=S)[nH]c3)n2)c[nH]1,> 200 µM,> 200 µM,–
Cc1ccc(N(C(=O)CC(=O)N/N=C/c2ccccc2O)C(=O)c2ccccc2)cc1,–,–,inactive
COc1cccc(N2C(=O)C3C4C=C5c6ccccc6N(c6ccccc6)C5(C3C2=O)[C@H]2C(=O)N(c3cccc(OC)c3)C(=O)[C@@H]42)c1 (stereo partly specified),> 4.37 µM,> 4.37 µM,–
O=C1/C=C(/c2ccc(O)cc2)[C@H](O)Cc2ccc(OC3OC(CO)C(O)C(O)C3O)cc2O1 (stereo partly specified) (tested in a mixture with another compound),> 251 µM,> 251 µM,–
COC1=C(NC(C)=O)C(=O)c2nc3n(c2C1=O)CCC3,> 200 µM,75.9 µM,–
N[C@H]1C2C3CC4C5CC(C42)C1(c1ccccc1)C53 (stereo partly specified),> 661 µM,53.7 µM,–
O=C(COc1ccc(Cl)cc1)c1ccccc1,> 1000 µM,> 1000 µM,–
COC1=CC(=O)c2c(O)c(CO)cc(O)c2C1=O,–,–,inactive
O=C1OC(c2ccccc2)=C2CCC3CCCCN1C23 (stereo unspecified),> 132 µM,> 132 µM,–
Cc1nc2ccccc2c(=O)n1Cc1nc2ccccc2[nH]1,–,–,inactive
CC1=NN(C(=O)CC(=O)NC(=O)/C=C\c2ccccc2)C(=O)C1N=Nc1ccc([N+](=O)[O-])cc1 (stereo unspecified),–,–,inactive
Cc1cc(-c2ccc(N=Nc3c(S(=O)(=O)O)cc4cc(S(=O)(=O)O)cc(N)c4c3O)c(C)c2)ccc1N=Nc1c(S(=O)(=O)O)cc2cc(S(=O)(=O)O)cc(N)c2c1O,34.7 µM,132 µM,–
COC1=C(OC)C(O)(c2ccccc2)C1=O (stereo unspecified),–,–,inactive
CCOC(=O)CC(Sc1ccccc1)Sc1ccccc1,–,–,inactive
CN1C(Cl)=NS(=O)(=O)c2ccccc21,> 200 µM,> 200 µM,–
CCCCP(CCCC)(CCCC)=C(C(=O)OC)C(C(=O)OC)=C1SC(C(=O)OC)=C(C(=O)OC)S1,> 200 µM,33.1 µM,–

SMILES,EC50,IC50,outcome
COC(=O)C(C#N)C1NC(=O)c2ccccc21 (stereo unspecified),> 81.3 µM,> 81.3 µM,–
COc1c2cc(C(C)(C)C)cc1Cc1cccc(c1O)Cc1cc(C(C)(C)C)cc(c1OC)Cc1cccc(c1O)Cc1cc(C(C)(C)C)cc(c1OC)Cc1cccc(c1O)C2,> 151 µM,> 151 µM,–
Cc1cn(CCCCOC(=O)NC(CCCNC(N)=O)C(=O)O)c(=O)[nH]c1=O (stereo unspecified),> 200 µM,> 200 µM,–
NNS(=O)(=O)c1ccc(/C=C2\NC(=O)NC2=O)cc1,> 200 µM,> 200 µM,–
CC1=NC(C)(C)N(O)C1(C)C,> 200 µM,> 200 µM,–
CCOC(=O)CCC1(CCC(=O)OCC)CCCCCCCCC(CCC(=O)OCC)(CCC(=O)OCC)C(=O)C1=O,> 200 µM,> 200 µM,–
C1=CN2CCCN3C=CC=c4ccc(c2c43)=C1,> 200 µM,110 µM,–
COc1ccc(C(=O)O[C@H]2[C@@H]3C=CO[C@@H](OC4OC(CO)C(O)C(O)C4O)[C@@H]3[C@@]3(CO)O[C@@H]23)cc1O (stereo partly specified),–,–,inactive
C/C=C(/CCC1NCCc2c1[nH]c1ccccc21)[Si](C)(C)C (stereo unspecified),–,–,inactive
Cc1nc2cccc(F)c2c(=O)n1C1CCCCNC1=O (stereo unspecified),> 200 µM,> 200 µM,–
CCOC(=O)c1ccc(Nc2nc3ccccc3nc2C(=O)OCC)cc1,> 200 µM,> 200 µM,–
CC1OC(=O)C2CC3CCCCC3C(/C=C/C3CCCC(C)N3C)C12 (stereo unspecified),–,–,inactive
COc1ccc2nc3cccc([N+](=O)[O-])c3c(NCCNCCO)c2c1,> 0.2 µM,0.112 µM,–
CC(C)(CN1CCCCC1)C(=O)CC(SCCS(=O)(=O)O)c1ccc(Br)cc1 (stereo unspecified),> 427 µM,1.74 µM,–
CCCCCCCCCCCc1c(O)c(O)cc2nc3cc(Cl)c(Cl)cc3nc12,> 16.6 µM,5.37 µM,–
c1ccc(SC2(Sc3ccccc3)CCCC2)cc1,–,–,inactive
O=C(c1ccc(Cl)cc1)N(C(=S)OCc1ccccn1)c1ccccc1,> 200 µM,83.2 µM,–
COc1cc2c(cc1OC)-c1c3cc(O)ccc3nn[n+]1CC2,–,–,inactive
Cc1ccnc(NC(=S)Nc2ccc([N+](=O)[O-])cc2)c1,> 200 µM,> 200 µM,–
COc1ccccc1NC(=O)/C(=C\n1c(=S)[nH]c2ccc([N+](=O)[O-])cc21)C(C)=O,> 200 µM,112 µM,–
Cc1ccc(C(=O)NC(C)C)cc1N=NN(C)C,> 145 µM,> 145 µM,–
Cc1ccc2nc(C=Nc3ccccc3Cl)cc(C)c2c1,> 200 µM,10.5 µM,–

SMILES,EC50,IC50,outcome
COc1ccc(Br)c(CCCCCCCC(=O)O)c1,> 100 µM,> 100 µM,–
COC(=O)c1ccc(N/C=C(/C#N)c2ccsc2)cc1,> 47.9 µM,> 47.9 µM,–
Sc1ccc2ccccc2c1CN1CCOCC1,> 87.1 µM,32.4 µM,–
COc1cc(CNc2cnc3cc(N)ccc3n2)cc(OC)c1OC,> 200 µM,6.46 µM,–
CC(C1CCCC1=O)C1CCCC1=O (stereo unspecified),–,–,inactive
COC(=O)c1ccc2c(O)c(O)ccc2c1,> 200 µM,3.16 µM,–
S=c1n(-c2ccc(Cl)cc2)c2nc3ccccc3nc(/c2=N\Nc2ccc(Br)cc2)n1-c1ccccn1,> 32.4 µM,30.9 µM,–
COc1cc2ccc3c(c2cc1OC)CCc1cn[nH]c1-3,> 9.77 µM,> 9.77 µM,–
CC(=O)Nc1ccc(NC(=O)CC(=O)Nc2ccc(NC(C)=O)cc2)cc1,> 200 µM,> 200 µM,–
CC1CCC2c3c([nH]c4ccccc34)C3C(=O)N(C4CCCCC4)C(=O)C3C2C1 (stereo unspecified),> 200 µM,9.33 µM,–
CC1CC(OP(=O)(OCc2ccccc2)OCc2ccccc2)[C@@H](OCc2ccccc2)C(OCc2ccccc2)C1OCc1ccccc1 (stereo partly specified),> 100 µM,> 100 µM,–
CC(C)N(C(=O)C12C3C4C5C3C1(C(=O)O)C5C42)C(C)C (stereo unspecified),> 661 µM,> 661 µM,–
Clc1cc(Cl)cc(N=C/C=C/Nc2cc(Cl)cc(Cl)c2)c1,–,–,inactive
O=C(O)C1CCC(c2ccc(Oc3ccccc3)cc2)N1 (stereo unspecified),> 200 µM,> 200 µM,–
COC1=CC(=O)C(C#CCOCc2ccccc2)=CC1=O,> 200 µM,14.8 µM,–
O=S(=O)(NCCSSCCNS(=O)(=O)c1cccs1)c1cccs1,> 200 µM,20 µM,–
CC(C)=C1C=C2CC[C@@H]3[C@](C)(CCC[C@@]3(C)C(=O)O)[C@H]2CC1,> 200 µM,105 µM,–
COc1ccc2c(c1)OC[C@@H]1c3cc4c(cc3O[C@H]21)OCO4,> 63.1 µM,> 63.1 µM,–
C[C@@H](c1ccccc1)n1c(N)c(-c2ccccn2)c2ccc([N+](=O)[O-])cc2c1=O,> 200 µM,24 µM,–
COC(=O)c1c(C)cccc1/C=C1\Cc2cc(C)cc(C)c2C1=O,> 200 µM,151 µM,–
CCCC(=O)Nc1cc(/C=C/C(=O)N2CC(CCl)c3c2cc([N+](=O)[O-])c2ccccc32)n(C)c1 (stereo unspecified),> 2 µM,0.794 µM,–
NC(=O)c1ncn(C2OC(CO)C(F)C2O)c1N (stereo unspecified),> 200 µM,> 200 µM,–

SMILES,EC50,IC50,outcome
COC(=O)C1C/C(=C/N(C)C)C(=S)N1 (stereo unspecified),> 200 µM,> 200 µM,–
CN(C)Cc1c(O)ccc2ccccc12,> 468 µM,245 µM,–
Cc1cc(S(=O)(=O)Nc2nnc3c4ccccc4cnn23)c(S)cc1Cl,56.2 µM,1170 µM,–
COC1/C=C/OC2(C)Oc3c(C)c(O)c4c(O)c(c(/C=N/N5C(C)CN(Cc6ccc(C)cc6)CC5C)c(O)c4c3C2=O)NC(=O)C(C)=C/C=C/C(C)C(O)C(C)C(O)C(C)C(OC(C)=O)C1C (stereo unspecified),> 200 µM,3.89 µM,–
CC(=O)/C(=C/c1ccc(N(C)C)cc1)c1ccccc1,> 19.5 µM,> 19.5 µM,–
CCOC(=O)CNC(=O)C(Cc1ccccc1)NC(=O)OCc1ccccc1 (stereo unspecified) (Cbz-[ξF]-Gly-OEt),> 200 µM,191 µM,–
COC1=CC(=O)C(O)=C(C[C@@]2(C)C3CCCC(C)(C)C3=CC[C@@H]2C)C1=O (stereo partly specified),> 363 µM,19.5 µM,–
CCOC(=O)CCC(NC(=O)c1ccc(N=Cc2nc3ccccc3nc2-c2ccccc2)cc1)C(=O)OCC (stereo unspecified),> 12.6 µM,> 12.6 µM,–
CN(CC1(CO)CCC1)c1cc(Cl)nc(N)n1,> 200 µM,53.7 µM,–
O=c1c2sc3nc(NCCN4CCCCC4)ncc3c2ncn1-c1ccccc1,> 200 µM,117 µM,–
OC1=C(O)c2ccccc21,> 1860 µM,> 1860 µM,–
CCCOc1ccc(/C(Cl)=C(\C=O)c2ccc(OC)c(OC)c2)cc1OCCC,> 4.79 µM,> 4.79 µM,–
Cc1ccc(S(=O)(=O)SC/C=C\CSS(=O)(=O)c2ccc(C)cc2)cc1,–,–,inactive
NC1=NN(c2ccccc2)C(=O)C1C(=O)C(=O)Nc1ccc(Cl)cc1 (stereo unspecified),> 347 µM,251 µM,–
COc1ccc(NC(=S)N/N=C/c2cccc(C)n2)cc1,> 200 µM,4.9 µM,–
CCCNC1=C(C(=O)OCC)C(=O)CO1,> 33.9 µM,> 33.9 µM,–
CO/N=C(\C(=O)[N-][n+]1cnn(CC(=O)O)c1)c1csc(N)n1,> 200 µM,> 200 µM,–
COc1cc(C2c3cc4c(cc3OC(NN)C2C)OCO4)cc(OC)c1O (stereo unspecified),–,–,inactive
CSCCC(NC(=O)Cc1ccc(C(=O)c2ccccc2)cc1)C(=O)O (stereo unspecified),> 200 µM,> 200 µM,–
CCC1=CCN(c2cc(C)ccn2)OC1c1ccccc1 (stereo unspecified),> 35.5 µM,> 35.5 µM,–
O=C1C2CCN(CC2)C1Cn1cnc2c(Cl)ncnc21 (stereo unspecified),–,–,inactive
